Measurements published in patent US20240228463A1, “SODIUM CHANNEL INHIBITORS AND METHODS OF DESIGNING SAME” (Genentech, Inc., priority 2021, published 2024).
pIC50: −log10 of the molar value.

biological target: T1, hNaV1.7 (Homo sapiens, UniProt Q15858); assay: Patch voltage clamp electrophysiology (EP), Syncropatch 384PE, Nav1.7 in CHO cells; assay type: cell-based; settings: holding potential −50 mV, inhibition based on 7.5 min compound incubation, read-out: hNaV1.7 EP_SP;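 also: Nav1.7 stably expressed from cDNA in CHO cells, holding potential of −50 mV kept for the entire experiment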
T1 construct: expressed in transfected cells
T1 sequence (Q15858 1-1977 isoform Q15858-3): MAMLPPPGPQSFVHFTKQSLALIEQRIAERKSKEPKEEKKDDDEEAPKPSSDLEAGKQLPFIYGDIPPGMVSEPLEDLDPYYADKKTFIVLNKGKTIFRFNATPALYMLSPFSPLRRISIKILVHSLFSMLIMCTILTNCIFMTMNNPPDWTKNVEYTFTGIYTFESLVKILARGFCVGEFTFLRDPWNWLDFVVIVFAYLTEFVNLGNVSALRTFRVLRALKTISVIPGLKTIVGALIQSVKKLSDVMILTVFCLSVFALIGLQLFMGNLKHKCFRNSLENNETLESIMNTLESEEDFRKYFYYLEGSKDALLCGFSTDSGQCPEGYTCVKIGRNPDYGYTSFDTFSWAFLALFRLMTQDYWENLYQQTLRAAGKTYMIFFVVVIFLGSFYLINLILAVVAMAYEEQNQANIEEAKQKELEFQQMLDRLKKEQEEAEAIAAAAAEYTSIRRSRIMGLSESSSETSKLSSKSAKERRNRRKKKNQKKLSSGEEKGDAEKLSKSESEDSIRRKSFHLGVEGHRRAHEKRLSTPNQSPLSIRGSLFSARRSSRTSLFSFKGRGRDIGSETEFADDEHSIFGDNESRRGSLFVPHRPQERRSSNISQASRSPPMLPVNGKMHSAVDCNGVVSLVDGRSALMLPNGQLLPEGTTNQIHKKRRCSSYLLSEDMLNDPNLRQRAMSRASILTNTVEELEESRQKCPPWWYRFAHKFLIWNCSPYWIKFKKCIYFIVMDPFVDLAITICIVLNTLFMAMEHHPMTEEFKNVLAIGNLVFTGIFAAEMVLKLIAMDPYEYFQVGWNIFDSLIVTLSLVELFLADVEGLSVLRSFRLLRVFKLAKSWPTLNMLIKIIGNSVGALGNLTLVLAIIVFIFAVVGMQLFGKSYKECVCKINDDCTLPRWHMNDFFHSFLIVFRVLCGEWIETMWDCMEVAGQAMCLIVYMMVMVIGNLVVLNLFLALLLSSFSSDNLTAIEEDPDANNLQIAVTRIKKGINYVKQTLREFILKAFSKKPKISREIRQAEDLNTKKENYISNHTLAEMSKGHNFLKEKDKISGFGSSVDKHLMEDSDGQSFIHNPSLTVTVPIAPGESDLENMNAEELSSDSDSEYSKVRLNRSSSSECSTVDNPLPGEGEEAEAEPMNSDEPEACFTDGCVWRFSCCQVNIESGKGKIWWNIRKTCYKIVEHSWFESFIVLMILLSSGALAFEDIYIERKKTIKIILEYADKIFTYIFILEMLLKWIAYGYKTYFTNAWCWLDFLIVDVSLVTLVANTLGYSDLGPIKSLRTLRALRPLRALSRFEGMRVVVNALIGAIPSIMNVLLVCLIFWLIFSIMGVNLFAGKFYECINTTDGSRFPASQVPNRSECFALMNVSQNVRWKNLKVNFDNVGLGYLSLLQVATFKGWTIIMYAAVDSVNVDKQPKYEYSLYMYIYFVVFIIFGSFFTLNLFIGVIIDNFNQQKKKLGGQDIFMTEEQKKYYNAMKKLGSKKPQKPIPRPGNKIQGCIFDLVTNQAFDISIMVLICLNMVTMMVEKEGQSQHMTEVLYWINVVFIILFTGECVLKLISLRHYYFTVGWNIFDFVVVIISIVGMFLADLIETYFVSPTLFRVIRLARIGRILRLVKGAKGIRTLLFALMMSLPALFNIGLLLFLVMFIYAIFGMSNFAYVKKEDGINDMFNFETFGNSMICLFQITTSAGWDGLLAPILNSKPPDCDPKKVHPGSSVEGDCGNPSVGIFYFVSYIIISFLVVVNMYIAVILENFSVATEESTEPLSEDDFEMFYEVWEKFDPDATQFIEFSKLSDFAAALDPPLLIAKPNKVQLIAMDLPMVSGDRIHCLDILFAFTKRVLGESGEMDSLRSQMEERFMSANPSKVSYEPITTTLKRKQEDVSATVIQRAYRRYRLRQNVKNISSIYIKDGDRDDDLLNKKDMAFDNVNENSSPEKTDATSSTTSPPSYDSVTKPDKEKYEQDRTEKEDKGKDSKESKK

Compound	pIC50
CN1CC(OC2CCN(S(=O)(=O)NC(=O)c3cc(C4CCC4)c(OCC4CCCC4)cc3F)CC2)C1 [Example 7, 5-cyclobutyl-4-(cyclopentylmethoxy)-2-fluoro-N-((4-((1-methylazetidin-3-yl)oxy)piperidin-1-yl)sulfonyl)benzamide 2,2,2-trifluoroacetate]	8.10
O=C(NS(=O)(=O)N1CCC(O[C@@H]2CCNC2)CC1)c1cc(C2CC2)c(OCC2CCCC2)cc1F (single isomer, unassigned) [Example 29, 2,2,2-trifluoroacetate]	7.57
CN(C)[C@H]1CCCC[C@@H]1Nc1cc(F)c(S(=O)(=O)Nc2ccc(OCCC3(C(F)(F)F)CC3)cn2)cc1Cl [Example 101, 5-chloro-4-(((1S,2S)-2-(dimethylamino)cyclohexyl)amino)-2-fluoro-N-(5-(2-(1-(trifluoromethyl)cyclopropyl)ethoxy)pyridin-2-yl)benzenesulfonamide]	6.32
CN(C)C1CCCN(c2ccc(S(=O)(=O)NC(=O)c3cc(Cl)c(OCC4CCCC4)cc3F)c(F)c2)C1 (stereo not shown) [Example 205, 5-chloro-4-(cyclopentylmethoxy)-N-((4-(3-(dimethylamino)piperidin-1-yl)-2-fluorophenyl)sulfonyl)-2-fluorobenzamide]	7.41
CN(C)[C@H]1CCCC[C@@H]1Nc1cc(F)c(S(=O)(=O)Nc2nc3ccc(OCC4CCCC4)cc3s2)cc1Cl [Example 202, 5-chloro-N-(6-(cyclopentylmethoxy)benzo[d]thiazol-2-yl)-4-(((1S,2S)-2-(dimethylamino)cyclohexyl)amino)-2-fluorobenzenesulfonamide]	7.66
CN1CC[C@H](OC2CCN(S(=O)(=O)NC(=O)c3cc(Cl)c(OCC4CCCC4)cc3F)CC2)C1 (single isomer, unassigned) [Example 38]	7.41
O=C(NS(=O)(=O)N1CCN2CCNCC2C1)c1cc(Cl)c(OCC2CCCC2)cc1F (stereo not shown) [Example 23, 5-chloro-4-(cyclopentylmethoxy)-2-fluoro-N-((octahydro-2H-pyrazino[1,2-a]pyrazin-2-yl)sulfonyl)benzamide]	6.96

Further lines, results first:

pIC50	Compound
6.04	CC(C)(C)OC(=O)C1CC2C(C1)C2NS(=O)(=O)NC(=O)c1cc(Cl)c(OCC2CCCC2)cc1F (stereo not shown) [Example 327, tert-butyl 6-((N-(5-chloro-4-(cyclopentylmethoxy)-2-fluorobenzoyl)-sulfamoyl)amino)bicyclo[3.1.0]hexane-3-carboxylate]
6.24	O=C(NS(=O)(=O)c1ccc(OCc2cncnc2)cc1)c1cc(Cl)c(OCC2CCCC2)cc1F [Example 304, 5-chloro-4-(cyclopentylmethoxy)-2-fluoro-N-((4-(pyrimidin-5-ylmethoxy)phenyl)sulfonyl)benzamide]
7.80	C[C@@H]1C[C@H]1S(=O)(=O)NC(=O)c1cc(Cl)c(OCC2CCCC2)cc1F (single isomer, unassigned) [Example 251]
6.02	O=C(NS(=O)(=O)c1ccc2ccccc2c1F)c1cc(Cl)c(OCC2CCCC2)cc1F [Example 278, 5-chloro-4-(cyclopentylmethoxy)-2-fluoro-N-((1-fluoronaphthalen-2-yl)sulfonyl)benzamide]
6.37	O=C(NS(=O)(=O)N1CC[C@@H]2CN[C@@H]2C1)c1cc(Cl)c(OCC2CCCC2)cc1F [Example 231, N-((1S,6R)-3,8-diazabicyclo[4.2.0]octan-3-ylsulfonyl)-5-chloro-4-(cyclopentylmethoxy)-2-fluorobenzamide 2,2,2-trifluoroacetate]
7.19	CN(C)[C@H]1CCCC[C@@H]1Nc1ccc(S(=O)(=O)Nc2nc3ccc(OCC4CCCC4)c(Cl)c3s2)c(F)c1 [Example 333, N-(7-chloro-6-(cyclopentylmethoxy)benzo[d]thiazol-2-yl)-4-(((1S,2S)-2-(dimethylamino)cyclohexyl)amino)-2-fluorobenzenesulfonamide]
